Earlier results as cited in paper PMC6640857 (Tetrahedron, 2019).

Details: relative to vancomycin; cited from earlier work

For “chlorobiphenylmethyl (CBP-)vancomycin [compound 2]”, the “enhancement of antimicrobial potency by the CBP modification” value is given as at most 100 fold.
